# Data reported in patent US11464788B2, “Oligomer-corticosteroid conjugates” (Nektar Therapeutics, priority 2007, dated 2022).
# pIC50: −log10 of the molar value. Where two headings read alike, the source gives them in different places.
# Key:
# glucocorticoid receptors = target: T1, glucocorticoid receptors (Rattus norvegicus, UniProt P06536); test: Glucocorticoid binding assay (competitive binding with [6,7-3H]triamcinolone acetonide); details: displacement of [6,7-3H]triamcinolone acetonide; glucocorticoid receptors from rat brains; 50 mM KH2PO4 pH 7.4, 0° C., 16 hours
# T1 sequence (P06536 1-795): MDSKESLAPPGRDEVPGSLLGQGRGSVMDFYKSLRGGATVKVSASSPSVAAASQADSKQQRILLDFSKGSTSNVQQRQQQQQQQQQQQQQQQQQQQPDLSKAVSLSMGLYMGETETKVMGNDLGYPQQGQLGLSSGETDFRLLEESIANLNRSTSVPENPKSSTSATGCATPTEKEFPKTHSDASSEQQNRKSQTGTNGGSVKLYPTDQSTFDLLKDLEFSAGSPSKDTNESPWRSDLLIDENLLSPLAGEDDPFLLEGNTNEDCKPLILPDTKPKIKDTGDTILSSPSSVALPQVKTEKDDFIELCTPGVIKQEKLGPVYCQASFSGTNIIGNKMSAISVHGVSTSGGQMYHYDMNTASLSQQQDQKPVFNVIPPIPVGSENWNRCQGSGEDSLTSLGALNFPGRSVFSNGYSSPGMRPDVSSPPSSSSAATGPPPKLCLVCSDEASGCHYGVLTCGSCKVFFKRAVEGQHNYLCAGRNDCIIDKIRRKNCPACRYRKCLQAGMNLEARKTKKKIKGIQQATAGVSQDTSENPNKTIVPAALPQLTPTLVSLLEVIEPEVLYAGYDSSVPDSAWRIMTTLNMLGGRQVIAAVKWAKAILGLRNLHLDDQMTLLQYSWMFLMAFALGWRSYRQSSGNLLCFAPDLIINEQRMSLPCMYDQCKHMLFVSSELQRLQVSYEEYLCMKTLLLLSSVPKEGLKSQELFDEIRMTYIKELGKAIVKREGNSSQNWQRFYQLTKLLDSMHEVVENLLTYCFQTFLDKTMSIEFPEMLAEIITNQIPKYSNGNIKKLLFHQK
# Procedure: The assay was used to determine whether the tested compounds bound to the glucocorticoid binding site and is based on procedures set forth in the literature. […] Int. […] Briefly, using competitive binding of with the radioligand “[6,7-^3H]triamcinolone acetonide” (30-50 Cl/mmol), reactions were carried out in 50 mM KH2PO4 (pH 7.4) containing 10 mM sodium molybdate and 10 mM α-monothioglycerol at 0° C. for 16 hours. The glucocorticoid receptors were obtained from rat brains. The reactions were terminated by rapid vacuum filtration onto glass fiber filters. Radioactively trapped onto the filters is determined and compared to control values. […] A higher IC50 value reflects a weaker binding affinity.
pIC50 (glucocorticoid receptors),stability of the drug (pH 7.4),SMILES,further results
8.41,,COCCOCCOCCOCCOCCOCCOCCOC(=O)NN=C1C=C2CCC3C(C(O)CC4(C)C3CCC4(O)C(=O)CO)C2(C)CC1 (centres unmarked) [mPEG7-Hydrocortisone],
8.92,,CC1(C)O[C@@H]2C[C@H]3[C@@H]4CCC5=CC(=O)C=C[C@]5(C)[C@@]4(F)[C@@H](O)C[C@]3(C)[C@]2(C(=O)CO)O1 [Triamcinolone Acetonide],

# The remaining lines, values behind:
SMILES,pIC50 (glucocorticoid receptors),stability of the drug (pH 7.4),further results
COCCOCCOCCOCCOCCOCCOCCOC(=O)NN=C1C=C2CCC3C(C(=O)CC4(C)C3CCC4(O)C(=O)CO)C2(C)CC1 (centres unmarked) [mPEG7-Cortisone],5.46,,cortisone release from the conjugate (hydrolysis) (pH 5.5): able to release cortisone clearly; cortisone release from the conjugate (hydrolysis) (pH 7.4): much slower than that at pH 5.5
C[C@]12CCC(=O)C=C1CC[C@@H]1[C@@H]2C(=O)C[C@@]2(C)[C@H]1CC[C@]2(O)C(=O)CO [Cortisone],,many decomposed impurities,stability of the drug (pH 5.5): stable
C[C@]12CCC(=O)C=C1CC[C@@H]1[C@@H]2[C@@H](O)C[C@@]2(C)[C@H]1CC[C@]2(O)C(=O)CO [Hydrocortisone],,much more stable than cortisone,
